Laboratory results published in patent EP0069811A1, “Branched amides of L-aspartyl-D-amino acid dipeptides and compositions thereof” (PFIZER INC., priority 1981, dated 1983).
Where a SMILES comes first, the peptide text is derived from it. [ ]: non-standard residue; d: D form. The star is where a group is joined. OiPr = CC(C)O*; NHBu = CCCCN*

Test system: not given
Assay: not given
Settings: 5% sucrose standard; Ariyoshi et al.; cited from earlier work

For `CCCOC(=O)[C@@H](CO)NC(=O)[C@@H](N)CC(=O)O` [L-aspartyl-D-serine n-propyl ester], the “times as sweet as a 5% sucrose standard” value is given as 320 times.

Same assay, conditions: prior-art values; cited from earlier work

First: CC1CCC1C(=O)OC[C@@H](C)NC(=O)[C@@H](N)CC(=O)O (some centres unmarked)
Second: C[C@H](COC(=O)C1CC1)NC(=O)[C@@H](N)CC(=O)O
The Sweetness potency of the first is lower: 160 x sucrose for the first, 200 x sucrose for the second.

Compared with `C[C@H](COC(=O)C1CCC1)NC(=O)[C@@H](N)CC(=O)O`, `C[C@@H](NC(=O)[C@@H](N)CC(=O)O)C(=O)NC1CCCCC1` [cyclohexyl] is lower in Sweetness potency: 220 x sucrose for the first, 100 x sucrose for the second.

First: COC(=O)C(NC(=O)[C@@H](N)CC(=O)O)C(=O)OC1CCCCC1C (stereo partly drawn) [L-aspartylaminomalonic acid methyl 2-methylcyclohexyl diester]
Second: CC(C)CNC(=O)[C@@H](C)NC(=O)[C@@H](N)CC(=O)O [isobutyl]
The Sweetness potency of the first is higher: 6600 x sucrose for the first, 100 x sucrose for the second.

First: CCCCNC(=O)[C@@H](C)NC(=O)[C@@H](N)CC(=O)O [n-butvlamide] (H-Asp-[dA]-NHBu)
Second: CCC(C)NC(=O)[C@@H](C)NC(=O)[C@@H](N)CC(=O)O (some centres unmarked) [secondary butyl]
The Sweetness potency of the first is higher: 125 x sucrose for the first, 100 x sucrose for the second.

For `CC(C)OC(=O)[C@@H](C)NC(=O)[C@@H](N)CC(=O)O` [L-aspartyl-D-alanine isopropyl ester] (H-Asp-[dA]-OiPr), the Sweetness potency is given as “up to 125 x sucrose”.

Test system: taste panel
Assay: Taste panel evaluation of blends with sodium saccharin for taste acceptability and sweetness intensity against aqueous sucrose standards
Type: in vivo
Settings: single components
Experimental: Blends of L-aspartyl-D-serine N-(2,2,4,4-tetra- methylthietan-3-yl)amide and sodium saccharin were prepared and evaluated for taste acceptability and sweetness intensity by comparison with aqueous sucrose standards.
The % synergy was calculated according to the following formula [formula] where A is the actual sweetness determined by averaging the taste panel results and T is the theoretical sweetness determined from the composition of the mixtures by weight e.g., for the 1:4 blend the theoretical sweetness is (1/5 x 1200) + (4/5 x 300) = 480.

First: CC1(C)SC(C)(C)C1NC(=O)[C@@H](CO)NC(=O)[C@@H](N)CC(=O)O [Example 3, L-Aspartyl-D-serine N-(2,2,4,4-tetramethylthietan-3-yl)amide]
Second: O=C1NS(=O)(=O)c2ccccc21.[Na] [sodium saccharin]
The “Sweetness potency factors used to calculate the theoretical sweetness of the blends” value of the first is higher: 1200 x sucrose for the first, 300 x sucrose for the second.

Test system: expert taste panel
Assay: Sweetness potency by comparison of gustatory sweetness with a sucrose standard (expert taste panel)
Type: in vivo
Settings: aqueous solutions compared with aqueous sucrose solutions of 7-9% by an expert taste panel
Experimental: The sweetness potency of the instant compounds was determined by comparison of their gustatory sweetnesses with sucrose. Aqueous solutions of the compound of formula (I) diluted to a suitable range of concentrations were compared with a sucrose standard by an expert taste panel. Comparisons were generally made with aqueous sucrose solutions of 7-9%, i.e., 7-9 g. per 100 ml. Higher sucrose concentrations have a distinctive mouthfeel which may influence results and lower sucrose concentration are not indicative of normal use situations. If, for example a 0.014% solution of the compound of formula (I) is judged to be equally as sweet as a 7% sucrose solution, then the sweetness potency of that compound is 7/0.014 = 500 x sucrose. All of the sweetness potency values stated herein for the compounds of the invention were determined by this method. At threshold concentrations (i.e., the lowest concentration at which sweetness is first noticed, which for sucrose is ordinarily at concentrations in the range of 2-3%), the potency of a sweetener, such as the compounds of the invention, is generally twice that observed by comparison of its gustatory sweetness with 7-9% solutions of sucrose.

First: CC1CCCC(C)C1NC(=O)[C@@H](CO)NC(=O)[C@@H](N)CC(=O)O (mixture of isomers) [Example 9, L-Aspartyl-D-serine N-(dl-cis,trans-2,6-dimethylcyclohexyl)amide]
Second: N[C@@H](CC(=O)O)C(=O)N[C@H](CO)C(=O)NC(C1CC1)C1CC1 [Example 1, L-Aspartyl-D-serine N-(dicyclopropylcarbinyl)amide]
The Sweetness potency of the first is lower: 200 x sucrose for the first, 700 x sucrose for the second.

Compared with `CC(C)C(NC(=O)[C@@H](CO)NC(=O)[C@@H](N)CC(=O)O)C(C)C` [Example 2, L-Aspartyl-D-serine N-(2,4-dimethyl-3-pentyl)amide], `CC1(C)SC(C)(C)C1NC(=O)[C@@H](CO)NC(=O)[C@@H](N)CC(=O)O` [Example 3, L-Aspartyl-D-serine N-(2,2,4,4-tetramethylthietan-3-yl)amide] is higher in Sweetness potency: 180 x sucrose for the first, 1200 x sucrose for the second.

First: CC1(C)C(NC(=O)[C@@H](CO)NC(=O)[C@@H](N)CC(=O)O)C(C)(C)S1(=O)=O [Example 4, L-Aspartyl-D-serine N-(2,2,4,4-tetamethyl-1,1-dioxothietan-3-yl)amide]
Second: COC[C@@H](NC(=O)[C@@H](N)CC(=O)O)C(=O)NC1C(C)(C)S(=O)(=O)C1(C)C [Example 8, L-Aspartyl-D-O-methylserine N-(2,2,4,4-tetramethyl-1,1-dioxothietan-3-yl)amide]
The Sweetness potency of the first is higher: 850 x sucrose for the first, 200 x sucrose for the second.

Going from `COC[C@@H](NC(=O)[C@@H](N)CC(=O)O)C(=O)NC(C1CC1)C1CC1` [Example 6, L-Aspartyl-D-O-methylserine N-(dicyclopropylcarbinyl)amide] to `COC[C@@H](NC(=O)[C@@H](N)CC(=O)O)C(=O)NC1C(C)(C)SC1(C)C` [Example 7], the Sweetness potency rises from 85 x sucrose to 320 x sucrose.
